Experimental data published in PubChem BioAssay AID256 (DTP/NCI, 2004).
Where “and” joins values, the source holds several entries; their conditions need not be identical. Equal values may be shown once. Inconclusive results and toxic doses are left out.

System: CD2F1 mice, L1210 leukemia ip, survival T/C
Experiment: NCI In Vivo Anticancer Drug Screen. Data for tumor model L1210 Leukemia (intraperitoneal) in CD2F1 (CDF1) mice
Conditions: higher = longer survival
Procedure, shortened: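 Vehicle-treated tumor-bearing mice served as controls (C) for compound-treated mice (T). Reported figure is T divided by C.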

[1] = endpoint: mean survival time, dose: 100.0 mg/kg/injection, schedule: Q04DX003 (ip), vehicle: saline with Tween-80
[2] = endpoint: mean survival time, dose: 200.0 mg/kg/injection, schedule: Q04DX003 (ip), vehicle: saline with Tween-80
[3] = endpoint: mean survival time, dose: 100.0 mg/kg/injection, schedule: Q01DX001 (ip), vehicle: saline
[4] = endpoint: mean survival time, dose: 200.0 mg/kg/injection, schedule: Q01DX001 (ip), vehicle: saline
[5] = endpoint: mean survival time, dose: 400.0 mg/kg/injection, schedule: Q01DX001 (ip), vehicle: saline
[6] = endpoint: mean survival time, dose: 100.0 mg/kg/injection, schedule: Q01DX001 (ip), vehicle: saline with Tween-80
[7] = endpoint: mean survival time, dose: 200.0 mg/kg/injection, schedule: Q01DX001 (ip), vehicle: saline with Tween-80
[8] = endpoint: mean survival time, dose: 400.0 mg/kg/injection, schedule: Q01DX001 (ip), vehicle: saline with Tween-80
[9] = endpoint: mean survival time, dose: 75.0 mg/kg/injection, schedule: Q01DX001 (ip), vehicle: saline
[10] = endpoint: mean survival time, dose: 150.0 mg/kg/injection, schedule: Q01DX001 (ip), vehicle: saline
[11] = endpoint: mean survival time, dose: 100.0 mg/kg/injection, schedule: Q04DX003 (ip), vehicle: saline
[12] = endpoint: mean survival time, dose: 200.0 mg/kg/injection, schedule: Q04DX003 (ip), vehicle: saline
[13] = endpoint: mean survival time, dose: 400.0 mg/kg/injection, schedule: Q04DX003 (ip), vehicle: saline
[14] = endpoint: mean survival time, dose: 100.0 mg/kg/injection, schedule: Q01DX009 (ip), vehicle: saline with Tween-80
[15] = endpoint: mean survival time, dose: 200.0 mg/kg/injection, schedule: Q01DX009 (ip), vehicle: saline with Tween-80
[16] = endpoint: mean survival time, dose: 400.0 mg/kg/injection, schedule: Q01DX009 (ip), vehicle: saline with Tween-80
[17] = endpoint: mean survival time, dose: 400.0 mg/kg/injection, schedule: Q04DX003 (ip), vehicle: saline with Tween-80
[18] = endpoint: mean survival time, dose: 50.0 mg/kg/injection, schedule: Q01DX009 (ip), vehicle: saline with Tween-80
[19] = endpoint: mean survival time, dose: 100.0 mg/kg/injection, schedule: Q04DX002 (ip), vehicle: saline with Tween-80
[20] = endpoint: mean survival time, dose: 200.0 mg/kg/injection, schedule: Q04DX002 (ip), vehicle: saline with Tween-80
[21] = endpoint: mean survival time, dose: 400.0 mg/kg/injection, schedule: Q04DX002 (ip), vehicle: saline with Tween-80
[22] = endpoint: median survival time, dose: 50.0 mg/kg/injection, schedule: Q01DX005 (ip), vehicle: saline
[23] = endpoint: median survival time, dose: 100.0 mg/kg/injection, schedule: Q01DX005 (ip), vehicle: saline
[24] = endpoint: median survival time, dose: 200.0 mg/kg/injection, schedule: Q01DX005 (ip), vehicle: saline
[25] = endpoint: mean survival time, dose: 25.0 mg/kg/injection, schedule: Q04DX003 (ip), vehicle: saline

## c1ccc(OCCOc2ccccc2)cc1
endpoint: mean survival time, dose: 50.0 mg/kg/injection, schedule: Q04DX003 (ip), vehicle: saline with Tween-80
  T/C: 98 % of control
[1]
  T/C: 89 % of control
[2]
  T/C: 91 % of control

## CN(CCCN(C)N=Nc1ccccc1C(=O)O)N=Nc1ccccc1C(=O)O
endpoint: mean survival time, dose: 100.0 mg/kg/injection, schedule: Q04DX003 (ip), vehicle: Klucel (hydroxypropylcellulose) (HPC)
  T/C: 102 % of control
endpoint: mean survival time, dose: 200.0 mg/kg/injection, schedule: Q04DX003 (ip), vehicle: Klucel (hydroxypropylcellulose) (HPC)
  T/C: 100 % of control
endpoint: mean survival time, dose: 400.0 mg/kg/injection, schedule: Q04DX003 (ip), vehicle: Klucel (hydroxypropylcellulose) (HPC)
  T/C: 98 % of control

## CC(C)C(C)(C)OC(=O)c1ccc([N+](=O)[O-])cc1
[3]
  T/C: 100 % of control
[4]
  T/C: 96 % of control
[5]
  T/C: 98 % of control

## O=[As](O)(CC(O)COc1ccc(Cl)cc1Cl)c1cccc(Cl)c1 (stereo not drawn)
endpoint: mean survival time, dose: 6.25 mg/kg/injection, schedule: Q04DX003 (ip), vehicle: saline with Tween-80
  T/C: 98 % of control
endpoint: mean survival time, dose: 12.5 mg/kg/injection, schedule: Q04DX003 (ip), vehicle: saline with Tween-80
  T/C: 110 % of control

## COC(=O)CCS/C=C/C(=O)O
[6]
  T/C: 97 % of control
[7]
  T/C: 100 % of control
[8]
  T/C: 97 % of control

## Cc1ccc(Cl)cc1S
[9]
  T/C: 98 % of control
[10]
  T/C: 102 % of control
endpoint: mean survival time, dose: 300.0 mg/kg/injection, schedule: Q01DX001 (ip), vehicle: saline
  T/C: 103 % of control

## Cc1c([N+](=O)[O-])cc(C(C)(C)C)c(OC(=S)N(C)C)c1[N+](=O)[O-]
endpoint: mean survival time, dose: 6.25 mg/kg/injection, schedule: Q01DX009 (ip), vehicle: saline with Tween-80
  T/C: 93 % of control
endpoint: mean survival time, dose: 12.5 mg/kg/injection, schedule: Q01DX009 (ip), vehicle: saline with Tween-80
  T/C: 95 % of control
endpoint: mean survival time, dose: 25.0 mg/kg/injection, schedule: Q01DX009 (ip), vehicle: saline with Tween-80
  T/C: 89 % of control

## CCCCCCCCC(O)CCC (stereo not drawn)
[11]
  T/C: 96 % of control
[12]
  T/C: 98 % of control
[13]
  T/C: 100 % of control

## C#CCOCCCC(=C)C
endpoint: mean survival time, dose: 100.0 mg/kg/injection, schedule: Q01DX001 (ip), vehicle: acetone
  T/C: 98 % of control

## CCC1(c2cccc([N+](=O)[O-])c2)OCCO1
[6]
  T/C: 94 % of control
[14]
  T/C: 102 % of control
[1]
  T/C: 102 % of control
[7]
  T/C: 94 % of control
[15]
  T/C: 110 % of control
[2]
  T/C: 107 % of control
[8]
  T/C: 94 % of control
[16]
  T/C: 103 % of control
[17]
  T/C: 102 % of control

## O=[N+]([O-])CS(=O)(=O)N1CCOCC1
[3]
  T/C: 103 % of control
[4]
  T/C: 106 % of control
[5]
  T/C: 110 % of control

## CCCc1nc(N)nc(N)n1
[18]
  T/C: 104 % of control
[14]
  T/C: 104 % of control
[15]
  T/C: 116 % of control

## N#CC1C(C#N)C1C#N (stereo not drawn)
[6]
  T/C: 98 % of control
[7]
  T/C: 98 % of control

## CC(C)NC(=O)NC(C)C
[3]
  T/C: 107 % of control
[4]
  T/C: 102 % of control
[5]
  T/C: 100 % of control

## C=Cc1cnc(N)nc1-c1ccc(OC)cc1
[19]
  T/C: 101 % of control
[20]
  T/C: 96 % of control
[21]
  T/C: 96 % of control

## CSc1nc2c(c(=O)[nH]1)CC(=O)N2
[22]
  T/C: 93 % of control
[23]
  T/C: 91 % of control
[24]
  T/C: 98 % of control

## C=CCc1nc2c(N)ncnc2n1C1OC(CO)C(O)C1O (stereo not drawn)
endpoint: median survival time, dose: 12.5 mg/kg/injection, schedule: Q01DX005 (ip), vehicle: water
  T/C: 105 % of control
endpoint: median survival time, dose: 25.0 mg/kg/injection, schedule: Q01DX005 (ip), vehicle: water
  T/C: 104 % of control
endpoint: median survival time, dose: 50.0 mg/kg/injection, schedule: Q01DX005 (ip), vehicle: water
  T/C: 102 % of control
endpoint: median survival time, dose: 100.0 mg/kg/injection, schedule: Q01DX005 (ip), vehicle: water
  T/C: 102 % of control
endpoint: median survival time, dose: 200.0 mg/kg/injection, schedule: Q01DX005 (ip), vehicle: water
  T/C: 104 % of control

## O=c1ccnc2cc[nH]n12
[22]
  T/C: 104 % of control
[23]
  T/C: 101 % of control
[24]
  T/C: 101 % of control

## O=C(C[n+]1cccc(C(=O)NCc2ccccc2)c1)Nc1ccc(Cl)cc1
[11]
  T/C: 94 % of control

## CC1CN1P(=O)(N1CC1C)N1CC1C.CC1CN1P(=O)(N1CC1C)N1CC1C.CC1CN1P(=O)(N1CC1C)N1CC1C.CC1CN1P(=O)(N1CC1C)N1CC1C.CC1CN1P(=O)(N1CC1C)N1CC1C.CC1CN1P(=O)(N1CC1C)N1CC1C.[Fe+3].[O-][Cl+3]([O-])([O-])O (stereo not drawn)
[19]
  T/C: 98 % of control
[20]
  T/C: 98 % of control
[21]
  T/C: 115 % of control

## CCn1c(C)[n+](CC)c2ccc(C(C)=O)cc21
[25]
  T/C: 104 % of control
endpoint: mean survival time, dose: 50.0 mg/kg/injection, schedule: Q04DX003 (ip), vehicle: saline
  T/C: 108 % of control
[11]
  T/C: 106 % of control

## COc1cc(C2=N/C(=C\c3ccc(Cl)c(Cl)c3)C(=O)O2)cc(OC)c1OC
[19]
  T/C: 114 % of control
[20]
  T/C: 95 % of control
[21]
  T/C: 100 % of control

## c1ccc(C[n+]2ccccc2)cc1
endpoint: mean survival time, dose: 12.5 mg/kg/injection, schedule: Q01DX009 (ip), vehicle: saline
  T/C: 100 % of control
endpoint: mean survival time, dose: 25.0 mg/kg/injection, schedule: Q01DX009 (ip), vehicle: saline
  T/C: 100 % of control
[18]
  T/C: 100 % of control
endpoint: mean survival time, dose: 50.0 mg/kg/injection, schedule: Q01DX009 (ip), vehicle: saline
  T/C: 106 % of control

## O=C(NO)c1ccncc1
endpoint: mean survival time, dose: 50.0 mg/kg/injection, schedule: Q01DX001 (ip), vehicle: saline
  T/C: 106 % of control
[3]
  T/C: 103 % of control
endpoint: mean survival time, dose: 100.0 mg/kg/injection, schedule: Q01DX009 (ip), vehicle: saline
  T/C: 102 % of control
[11]
  T/C: 91 % of control
[4]
  T/C: 110 % of control
endpoint: mean survival time, dose: 200.0 mg/kg/injection, schedule: Q01DX009 (ip), vehicle: saline
  T/C: 104 % of control
[12]
  T/C: 94 % of control
[5]
  T/C: 97 % of control
endpoint: mean survival time, dose: 400.0 mg/kg/injection, schedule: Q01DX009 (ip), vehicle: saline
  T/C: 107 % of control
[13]
  T/C: 94 % of control

## O=C(CCl)c1ccc(O)c(O)c1
endpoint: mean survival time, dose: 6.25 mg/kg/injection, schedule: Q04DX003 (ip), vehicle: saline
  T/C: 94 % of control
endpoint: mean survival time, dose: 12.5 mg/kg/injection, schedule: Q04DX003 (ip), vehicle: saline
  T/C: 92 % of control
[25]
  T/C: 92 % of control

## O=C(c1ccccc1)C(Sc1ccccc1)Sc1ccccc1
endpoint: median survival time, dose: 50.0 mg/kg/injection, schedule: Q04DX002 (ip), vehicle: saline with Tween-80
  T/C: 100 % of control
endpoint: median survival time, dose: 100.0 mg/kg/injection, schedule: Q04DX002 (ip), vehicle: saline with Tween-80
  T/C: 100 % of control
endpoint: median survival time, dose: 200.0 mg/kg/injection, schedule: Q04DX002 (ip), vehicle: saline with Tween-80
  T/C: 100 % of control
endpoint: median survival time, dose: 400.0 mg/kg/injection, schedule: Q04DX002 (ip), vehicle: saline with Tween-80
  T/C: 110 % of control

## COc1ccc(NC2=C(C)C(=O)C3=C(C2=O)[C@H](COC(N)=O)[C@]2(OC)[C@@H]4N[C@@H]4CN32)cc1
endpoint: mean survival time, dose: 1.5 mg/kg/injection, schedule: Q01DX001 (ip), vehicle: water
  T/C: 107 % of control
endpoint: mean survival time, dose: 3.0 mg/kg/injection, schedule: Q01DX001 (ip), vehicle: water
  T/C: 118 % of control and 110 % of control
endpoint: mean survival time, dose: 6.0 mg/kg/injection, schedule: Q01DX001 (ip), vehicle: water
  T/C: 117 % of control and 111 % of control
endpoint: mean survival time, dose: 12.0 mg/kg/injection, schedule: Q01DX001 (ip), vehicle: water
  T/C: 124 % of control
endpoint: mean survival time, dose: 24.0 mg/kg/injection, schedule: Q01DX001 (ip), vehicle: water
  T/C: 153 % of control
endpoint: mean survival time, dose: 48.0 mg/kg/injection, schedule: Q01DX001 (ip), vehicle: water
  T/C: 124 % of control

## Cc1cccc(C)c1NC(=O)c1cccc(Cl)c1
[14]
  T/C: 94 % of control
[1]
  T/C: 98 % of control
[15]
  T/C: 98 % of control
[2]
  T/C: 96 % of control
[16]
  T/C: 94 % of control
[17]
  T/C: 98 % of control

## COC(=O)C(=O)O
[14]
  T/C: 93 % of control
[11]
  T/C: 95 % of control
[15]
  T/C: 95 % of control
[12]
  T/C: 104 % of control
[13]
  T/C: 93 % of control

## Cc1ccnc(OCCCCCNCCS)c1
[9]
  T/C: 98 % of control
[10]
  T/C: 98 % of control
